Laboratory results published in patent US9321790B2, “Pyrimidinone derivatives as antimalarial agents” (SANOFI, priority 2012, dated 2016).
Read-outs that look alike come from different tables or passages of the source.

Columns and labels:
human PI3Kα = human PI3Kα (Homo sapiens (Human), UniProt P42336); assay: Human PI3Kα activity test (luciferin/luciferase ATP consumption, KinaseGlo); assay type: biochemical
Protocol: The test uses a luciferin/luciferase system to measure the concentration of ATP and its consumption during the enzymatic reaction.
After 90 minutes, the reaction is quenched by adding 20 μl/well of KinaseGlo reagent (Promega V6713). After 10 minutes in the dark, the luminescence is read using a PHERAStar microplate reader (reading at 0.8 sec/well).

[1] = test system: Plasmodium falciparum (strain NF54); assay: Antimalarial activity test: growth of Plasmodium falciparum in infected human erythrocytes, 3H-hypoxanthine incorporation; assay type: cell-based; details: strain NF54 sensitive to chloroquine, 72 h total incubation
How it was run: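 Chloroquine-sensitive NF54 parasites in human erythrocytes (1.25% hematocrit, 0.15% parasitemia) were grown in hypoxanthine-free RPMI 1640 with HEPES and Albumax II, with compound in twofold serial dilution, at 37 °C under 93% N2/4% CO2/3% O2. After 48 h, 3H-hypoxanthine (0.5 μCi) was added for 24 h. Scintillation counts versus drug-free control gave IC50.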

[2] = Plasmodium falciparum, Erythrocyte
[3] = PI3Kα (p110α/p85α), 50 μM PIP2, 2 μM ATP, 90 minutes, read-out: IC50 Human PI3Kα

human PI3Kα, sequence (P42336 whole entry): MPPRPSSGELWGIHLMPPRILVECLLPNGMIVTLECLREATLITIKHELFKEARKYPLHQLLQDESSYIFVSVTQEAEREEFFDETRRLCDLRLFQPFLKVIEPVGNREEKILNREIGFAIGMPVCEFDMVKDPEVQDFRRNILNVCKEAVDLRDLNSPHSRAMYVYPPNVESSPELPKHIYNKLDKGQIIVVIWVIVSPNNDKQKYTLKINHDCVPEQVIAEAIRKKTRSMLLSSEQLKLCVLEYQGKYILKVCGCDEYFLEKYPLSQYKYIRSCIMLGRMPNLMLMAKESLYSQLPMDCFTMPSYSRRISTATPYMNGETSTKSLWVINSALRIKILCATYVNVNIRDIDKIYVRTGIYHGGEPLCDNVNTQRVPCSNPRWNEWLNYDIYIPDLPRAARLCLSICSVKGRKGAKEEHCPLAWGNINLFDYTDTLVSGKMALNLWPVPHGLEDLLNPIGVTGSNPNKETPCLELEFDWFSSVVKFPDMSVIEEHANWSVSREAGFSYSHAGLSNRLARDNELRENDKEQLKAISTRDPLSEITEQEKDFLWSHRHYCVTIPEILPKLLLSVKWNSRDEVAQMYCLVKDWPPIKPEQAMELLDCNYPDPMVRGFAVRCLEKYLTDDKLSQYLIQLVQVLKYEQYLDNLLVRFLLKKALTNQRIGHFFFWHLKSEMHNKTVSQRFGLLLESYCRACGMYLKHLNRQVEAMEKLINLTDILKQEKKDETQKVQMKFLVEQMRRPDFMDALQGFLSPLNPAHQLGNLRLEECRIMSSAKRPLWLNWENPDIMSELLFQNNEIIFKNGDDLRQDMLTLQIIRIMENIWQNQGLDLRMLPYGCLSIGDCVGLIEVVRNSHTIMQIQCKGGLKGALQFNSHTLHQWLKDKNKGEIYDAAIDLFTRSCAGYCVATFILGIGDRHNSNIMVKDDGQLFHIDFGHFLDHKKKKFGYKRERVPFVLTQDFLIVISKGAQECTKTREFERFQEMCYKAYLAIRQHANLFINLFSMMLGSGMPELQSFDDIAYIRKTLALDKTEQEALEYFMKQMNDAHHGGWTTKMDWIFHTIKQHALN
human PI3Kα, sequence (P27986 whole entry partner): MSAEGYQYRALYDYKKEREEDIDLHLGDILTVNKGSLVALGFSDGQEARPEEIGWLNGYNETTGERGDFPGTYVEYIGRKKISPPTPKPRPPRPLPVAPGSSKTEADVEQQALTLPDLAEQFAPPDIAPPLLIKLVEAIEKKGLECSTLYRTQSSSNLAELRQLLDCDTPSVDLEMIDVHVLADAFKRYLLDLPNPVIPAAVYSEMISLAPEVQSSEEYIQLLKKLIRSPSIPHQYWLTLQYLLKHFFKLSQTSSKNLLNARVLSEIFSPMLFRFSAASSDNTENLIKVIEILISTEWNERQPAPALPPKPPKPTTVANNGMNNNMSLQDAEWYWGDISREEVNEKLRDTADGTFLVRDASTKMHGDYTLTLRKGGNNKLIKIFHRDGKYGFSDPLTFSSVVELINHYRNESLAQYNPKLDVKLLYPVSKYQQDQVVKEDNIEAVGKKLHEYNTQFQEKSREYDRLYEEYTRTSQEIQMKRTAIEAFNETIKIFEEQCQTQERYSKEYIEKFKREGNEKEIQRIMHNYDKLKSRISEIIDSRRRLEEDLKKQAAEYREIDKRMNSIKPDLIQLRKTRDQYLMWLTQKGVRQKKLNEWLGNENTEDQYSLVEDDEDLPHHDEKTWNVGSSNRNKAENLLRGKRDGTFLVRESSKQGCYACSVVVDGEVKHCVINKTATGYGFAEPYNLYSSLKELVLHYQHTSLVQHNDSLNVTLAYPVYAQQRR

| IC50 [1, 2] | IC50 (human PI3Kα; [3]) | IC50 [1] | Compound | IC50 (human PI3Kα) |
| --- | --- | --- | --- | --- |
| 0.004 µM | 0.78 µM |  | O=c1cc(N2C[C@@H]3C[C@H]2CO3)nc2n1CC[C@@H](C(F)(F)F)N2CC1CCOCC1 [Compound 93, (8S)-2-(1S,4S)-2-oxa-5-azabicyclo[2.2.1]hept-5-yl-9-(tetrahydropyran-4-ylmethyl)-8-trifluoromethyl-6,7,8,9-tetrahydropyrimido[1,2-a]pyrimidin-4-one] |  |
| 0.009 µM | 0.13 µM |  | CC(=O)N1CCC(CN2c3nc(N4C[C@@H]5C[C@H]4CO5)cc(=O)n3CC[C@H]2C(F)(F)F)CC1 [Compound 94, (8S)-9-(1-Acetylpiperid-4-ylmethyl)-2-(1S,4S)-2-oxa-5-azabicyclo[2.2.1]hept-5-yl-8-trifluoromethyl-6,7,8,9-tetrahydropyrimido[1,2-a]pyrimidin-4-one] |  |
| 0.007 µM | 0.18 µM |  | O=CN1CCC(CN2c3nc(N4C[C@@H]5C[C@H]4CO5)cc(=O)n3CC[C@H]2C(F)(F)F)CC1 [Compound 95, 4-((2S)-8-(1S,4S)-2-oxa-5-azabicyclo[2.2.1]hept-5-yl-6-oxo-2-trifluoromethyl-3,4-dihydro-2H,6H-pyrimido[1,2-a]pyrimidin-1-ylmethyl)piperidine-1-carbaldehyde] |  |
| 0.17 µM | 8.5 µM |  | O=c1cc(N2C[C@@H]3C[C@H]2CO3)nc2n1CC[C@@H](C(F)(F)F)N2CC(O)(C(F)(F)F)C(F)(F)F [Compound 96, (8S)-2-(1S,4S)-2-oxa-5-azabicyclo[2.2.1]hept-5-yl-9-(3,3,3-trifluoro-2-hydroxy-2-trifluoromethylpropyl)-8-trifluoromethyl-6,7,8,9-tetrahydropyrimido[1,2-a]pyrimidin-4-one] |  |
|  | 0.44 µM | 0.03 µM | O=c1cc(N2C[C@@H]3C[C@H]2CO3)nc2n1CC[C@@H](C(F)(F)F)N2CCC(O)(C(F)(F)F)C(F)(F)F [Compound 97, (8S)-2-(1S,4S)-2-Oxa-5-azabicyclo[2.2.1]hept-5-yl-9-(4,4,4-trifluoro-3-hydroxy-3-trifluoromethylbutyl)-8-trifluoromethyl-6,7,8,9-tetrahydropyrimido[1,2-a]pyrimidin-4-one] |  |
|  | > 10 µM | 0.14 µM | O=C(CN1c2nc(N3C[C@@H]4C[C@H]3CO4)cc(=O)n2CC[C@H]1C(F)(F)F)N1CC2CCC(C1)O2 [Compound 98, (8S)-2-(1S,4S)-2-Oxa-5-azabicyclo[2.2.1]hept-5-yl-9-[2-(8-oxa-3-azabicyclo[3.2.1]oct-3-yl)-2-oxoethyl]-8-trifluoromethyl-6,7,8,9-tetrahydropyrimido[1,2-a]pyrimidin-4-one] |  |
| 0.009 µM | 1.98 µM |  | O=c1cc(N2C[C@@H]3C[C@H]2CO3)nc2n1CC[C@@H](C(F)(F)F)N2CCC1(O)CCCC1 [Compound 100, (8S)-9-[2-(1-Hydroxycyclopentyl)ethyl]-2-(1S,4S)-2-oxa-5-azabicyclo[2.2.1]hept-5-yl-8-trifluoromethyl-6,7,8,9-tetrahydropyrimido[1,2-a]pyrimidin-4-one] |  |
| 0.01 µM | 0.45 µM |  | O=c1cc(N2C[C@@H]3C[C@H]2CO3)nc2n1CC[C@@H](C(F)(F)F)N2CC1(O)CCCC1 [Compound 101, (8S)-9-(1-Hydroxycyclopentylmethyl)-2-(1S,4S)-2-oxa-5-azabicyclo[2.2.1]hept-5-yl-8-trifluoromethyl-6,7,8,9-tetrahydropyrimido[1,2-a]pyrimidin-4-one] |  |
| 0.005 µM | 2.5 µM |  | O=c1cc(N2C[C@@H]3C[C@H]2CO3)nc2n1CC[C@@H](C(F)(F)F)N2CCC(O)(C1CC1)C1CC1 [Compound 102, (8S)-9-(3,3-Dicyclopropyl-3-hydroxypropyl)-2-(1S,4S)-2-oxa-5-azabicyclo[2.2.1]hept-5-yl-8-trifluoromethyl-6,7,8,9-tetrahydropyrimido[1,2-a]pyrimidin-4-one] |  |

The remaining lines, values behind:

| Compound | IC50 [1, 2] | IC50 (human PI3Kα; [3]) | IC50 [1] | IC50 (human PI3Kα) |
| --- | --- | --- | --- | --- |
| O=C(CN1c2nc(N3C4CCC3COC4)cc(=O)n2CC[C@H]1C(F)(F)F)c1cccnc1 [Compound 85, (8S)-2-(3-Oxa-8-azabicyclo[3.2.1]oct-8-yl)-9-(2-oxo-2-pyrid-3-ylethyl)-8-trifluoromethyl-6,7,8,9-tetrahydropyrimido[1,2-a]pyrimidin-4-one] | 0.15 µM |  |  | > 10 µM |
| O=c1cc(N2CC3CCC(C2)O3)nc2n1CC[C@@H](C(F)(F)F)N2Cc1ccn(C(F)F)n1 [Compound 86, (8S)-9-(1-Difluoromethyl-1H-pyrazol-3-ylmethyl)-2-(8-oxa-3-azabicyclo[3.2.1]oct-3-yl)-8-trifluoromethyl-6,7,8,9-tetrahydropyrimido[1,2-a]pyrimidin-4-one] | 0.17 µM | 7.3 µM |  |  |
| O=C(CN1c2nc(N3CC4CCC(C3)O4)cc(=O)n2CC[C@H]1C(F)(F)F)c1ccccn1 [Compound 88, (8S)-2-(8-Oxa-3-azabicyclo[3.2.1]oct-3-yl)-9-(2-oxo-2-pyrid-2-ylethyl)-8-trifluoromethyl-6,7,8,9-tetrahydropyrimido[1,2-a]pyrimidin-4-one] | 0.14 µM | 1.3 µM |  |  |
| CC(=O)N1CCC(CCN2c3nc(N4C[C@@H]5C[C@H]4CO5)cc(=O)n3CC[C@H]2C(F)(F)F)CC1 [Compound 89, (S)-9-[2-(1-Acetylpiperid-4-yl)ethyl]-2-(1S,4S)-2-oxa-5-azabicyclo[2.2.1]hept-5-yl-8-trifluoromethyl-6,7,8,9-tetrahydropyrimido[1,2-a]pyrimidin-4-one] | 0.0034 µM | 2.8 µM |  |  |
| O=CN1CCC(CCN2c3nc(N4C[C@@H]5C[C@H]4CO5)cc(=O)n3CC[C@H]2C(F)(F)F)CC1 [Compound 90, 4-[2-((2S)-8-(1S,4S)-2-oxa-5-azabicyclo[2.2.1]hept-5-yl-6-oxo-2-trifluoromethyl-3,4-dihydro-2H,6H-pyrimido[1,2-a]pyrimidin-1-yl)ethyl]piperidine-1-carbaldehyde] | 0.002 µM | 2.4 µM |  |  |
| CCOC(=O)N1CCC(C(=O)CN2c3nc(N4C[C@@H]5C[C@H]4CO5)cc(=O)n3CC[C@H]2C(F)(F)F)CC1 [Compound 91, 4-[2-((S)-8-(1S,4S)-2-Oxa-5-azabicyclo[2.2.1]hept-5-yl-6-oxo-2-trifluoromethyl-3,4-dihydro-2H,6H-pyrimido[1,2-a]pyrimidin-1-yl)acetyl]piperidine-1-carboxylic acid ethyl ester] |  | > 10 µM | 0.025 µM |  |
| O=c1cc(N2C[C@@H]3C[C@H]2CO3)nc2n1CC[C@@H](C(F)(F)F)N2CCC1CCOCC1 [Compound 92, (8S)-2-(1S,4S)-2-oxa-5-azabicyclo[2.2.1]hept-5-yl-9-[2-(tetrahydropyran-4-yl)ethyl]-8-trifluoromethyl-6,7,8,9-tetrahydropyrimido[1,2-a]pyrimidin-4-one] | 0.004 µM | 0.45 µM |  |  |
| O=C(CN1c2nc(N3C[C@@H]4C[C@H]3CO4)cc(=O)n2CC[C@H]1C(F)(F)F)N1C2CCC1COC2 [Compound 99, (8S)-2-(1S,4S)-2-oxa-5-azabicyclo[2.2.1]hept-5-yl-9-[2-(3-oxa-8-azabicyclo[3.2.1]oct-8-yl)-2-oxoethyl]-8-trifluoromethyl-6,7,8,9-tetrahydropyrimido[1,2-a]pyrimidin-4-one] | 0.17 µM |  |  | > 10 µM |
